In patent publication US6878713B2, “Generation triple-targeting, chiral, broad-spectrum antimicrobial 7-substituted piperidino-quinolone carboxylic acid derivatives, their preparation, compositions and use as medicaments” (Wockhardt Limited, priority 2001, dated 2005):
≈ marks a conversion by molar mass, not a printed value.

Assays:
[1] = system: Fluoroquinolone-Resistant Strains; experiment: In-vitro antimicrobial test (MIC, two-fold serial agar dilution, NCCLS), Table 18; type: cell-based; settings: for MICs: hydrochloride
Protocol: (§1) The test method was in accordance with the standard NCCLS protocol (Methods for Dilution Antimicrobial Susceptibility Tests for Bacteria that grow Aerobicially, Approved Standards, M7-A5, Fifth Edition, January 2000).
(§2) The antibacterial activities (minimum inhibitory concentration: MIC, […]) were determined by using the two-fold serial agar dilution method recommended by NCCLS. The media used for preculture and main culture were Tryptic Soya broth (Difco) and Mueller Hinton medium (Difco), respectively. The Mueller Hinton agar was supplemented with 5% sheep blood for streptococci. Overnight cultures were diluted with buffered saline (pH 7.2) to the final cell density of 5×10^6-10^7 CFU/ml, and each bacterial suspension was applied with a replicator (Denley's multipoint inoculator, UK) onto a series of Mueller-Hinton agar plates containing antibacterial agents at various concentrations. Final inoculum was approximately 10^4 CFU/spot. The plates were incubated for 18 hrs at 37° C. The MIC was defined as the lowest concentration of an antibacterial agent that inhibits the development of visible microbial growth on agar.

[2] = system: Fluoroquinolone Sensitive Strains; experiment: In-vitro antimicrobial test (MIC, two-fold serial agar dilution, NCCLS), Table 17; type: cell-based; settings: for MICs: hydrochloride
Protocol: as §1, §2

[3] = system: J 744 (mouse macrophage); experiment: Cytotoxicity test (Alamar blue), J 744 cells, Table 23; type: cell-based; settings: 3 hrs drug exposure, further 96 hrs incubation
Protocol: Compounds were evaluated for their cytotoxic potential against two celllines viz. […] Cytotoxic drugs inhibit this reaction resulting into blue coloured well. Minimum drug concentration inhibiting Alamar blue color change i.e. resulting into blue coloured wells for a given drug is considered cytotoxic concentration.

[4] = system: V79 (Chinese Hamster Lung); experiment: Cytotoxicity test (Alamar blue), V79 cells, Table 23; type: cell-based; settings: 3 hrs drug exposure, further 96 hrs incubation
Protocol: Compounds were evaluated for their cytotoxic potential against two […] viz. […] Cells were grown for 3-4days in a culture flask using D-MEM (Dulbecco's Modified Eagle. […] Freshly grown cells were distributed in microtiter plates at a cell density of 10^5-10^6 cells/well and allowed to […] form monolayer by incubating the microtiter plate at […] for 24 hrs. […] Following 3 hrs. of drug exposure, cell were washed with D-MEM and incubated further for 96 hrs. Cytotoxic effects of drugs were monitored through daily microscopic observation and by ascertaining the metabolic status through redox indicator Alamar blue. Healthy actively metabolising cells bring about colour change of Alamar blue from blue to pink within an overnight incubation. Cytotoxic drugs inhibit this reaction resulting into blue coloured well. Minimum drug concentration inhibiting Alamar blue color change i.e. resulting into blue coloured wells for a given drug is considered cytotoxic concentration.

[5] = system: Multidrug-Resistant (MDR) Pneumococcal Infections; experiment: In-vivo antimicrobial test, systemic infection model (mouse septicemia), Table 22; design: species or system Swiss male and female mice; settings: Streptococcus pneumoniae, po, oral dosing 1 hour and 5 hours post-infection, survival on day 7, strain resistant to β-lactams, macrolides and fluoroquinolones, read-out: ED50 p.o., MDR S. pneumoniae 718
Protocol: The in vivo efficacy was studied through mouse septicemia model of infection in Swiss male and female mice (4 weeks old, 20+2 g weight) using 6 animals in each group. Infective organisms were inoculated intraperitonially. Compound were administered by oral route 1 hour and 5 hours post-infection. […] Appropriate comparators were included in the study.

[6] = Staphylococcus aureus, MRSA, MRSA 032
[7] = Streptococcus mitis, Cipro^R S. mitis 938
[8] = Streptococcus pneumoniae, FQ^R S. pneumoniae 718
[9] = Enterococcus faecalis, ATCC29212, E. faecalis ATCC 29212
[10] = Escherichia coli, ATCC25922, E. coli ATCC 25922
[11] = Pseudomonas aeruginosa, P. aeruginosa 27853
[12] = S. sanguis ATCC 10556 (Viridans Streptococci group)
[13] = Staphylococcus aureus, ATCC 25923 / MSSA, MSSA ATCC 25923
[14] = Streptococcus pneumoniae, ATCC49619, S. pneumoniae ATCC 49619

Cc1c(N2CC[C@@H](N)[C@H](C)C2)c(F)cc2c(=O)c(C(=O)O)cn(C3CC3)c12 (single isomer, unassigned) [Compound 97, trans-1-Cyclopropyl-6-fluoro-1,4-dihydro-8-methyl-7-(4-amino-3-methyl-1-piperidinyl)-4-oxo-quinoline-3-carboxylic acid]
MIC ([1]; Cipro^R S. sanguis 941): 3.12 µg/mL (≈ 8.36 µM) | MIC [1, 6]: 0.8 µg/mL (≈ 2.14 µM) | MIC [1, 7]: 3.12 µg/mL (≈ 8.36 µM) | MIC [1, 8]: 3.12 µg/mL (≈ 8.36 µM) | MIC [2, 9]: 0.2 µg/mL (≈ 0.536 µM) | MIC [2, 10]: 0.4 µg/mL (≈ 1.07 µM) | MIC [2, 11]: 12.5 µg/mL (≈ 33.5 µM) | MIC [2, 12]: 0.2 µg/mL (≈ 0.536 µM) | MIC [2, 13]: 0.012 µg/mL (≈ 0.0321 µM) | MIC [2, 14]: 0.1 µg/mL (≈ 0.268 µM) | Cytotoxic concentration, J 744 Macrophage [3]: >1000 µg/mL | Cytotoxic concentration, V 79 CHL [4]: >1000 µg/mL | melting point: 223 to 225 °C

Cc1c(N2CC[C@@H](N)[C@H](C)C2)c(F)cc2c(=O)c(C(=O)O)cn(C3CC3)c12.Cl (single isomer, unassigned) [Compound 98, trans-1-Cyclopropyl-6-fluoro-1,4-dihydro-8-methyl-7-(4-amino-3-methyl-1-piperidinyl)-4-oxo-quinoline-3-carboxylic acid hydrochloride]
MIC ([1]; Cipro^R S. sanguis 941): 3.12 µg/mL | MIC [1, 6]: 1.56 µg/mL | MIC [1, 7]: 1.56 µg/mL | MIC [1, 8]: 1.56 µg/mL | MIC [2, 9]: 0.1 µg/mL | MIC [2, 10]: 0.006 µg/mL | MIC [2, 11]: 1.56 µg/mL | MIC [2, 12]: 0.025 µg/mL | MIC [2, 13]: 0.025 µg/mL | MIC [2, 14]: 0.05 µg/mL | Cytotoxic concentration, J 744 Macrophage [3]: 1000 µg/mL | Cytotoxic concentration, V 79 CHL [4]: 250 µg/mL | melting point: 262 to 265 °C

Cc1c(N2CCC(N)C(C)(C)C2)c(F)cc2c(=O)c(C(=O)O)cn(C3CC3)c12.Cl (single isomer, unassigned; (+)) [Compound 106, (+)-1-Cyclopropyl-6-fluoro-1,4-dihydro-8-methyl-7-(4-amino-3,3-dimethyl-1-piperidinyl)-4-oxo-quinoline-3-carboxylic acid hydrochloride]
MICs ([1]; Cipro^R S. mitis 938): 6.25 µg/mL | MICs ([1]; Cipro^R S. sanguis 941): 6.25 µg/mL | MICs ([1]; FQ^R S. pneumoniae 718): 1.56 µg/mL | MICs ([1]; MRSA 032): 1.56 µg/mL | MICs ([2]; E. faecalis ATCC 29212): 0.2 µg/mL | MIC [2, 10]: 0.05 µg/mL | MICs ([2]; P. aeruginosa 27853): 6.25 µg/mL | MICs ([2]; S. pneumoniae ATCC 49619): 0.1 µg/mL | MIC [2, 12]: 0.1 µg/mL | MIC [2, 13]: 0.025 µg/mL | Cytotoxic concentration, J 744 Macrophage ([3]; hydrochloride): >1000 µg/mL | Cytotoxic concentration, V 79 CHL ([4]; hydrochloride): >1000 µg/mL

COc1c(N2CCC(N)C(C)C2)c(F)cc2c(=O)c(C(=O)O)cn(C3CC3)c12 (centres unmarked) [Compound 1, 1-Cyclopropyl-6-fluoro-1,4-dihydro-8-methoxy-7-(4-amino-3-methyl-1-piperidinyl)-4-oxo-quinoline-3-carboxylic acid]
MIC [2, 10]: 0.05 µg/mL (≈ 0.128 µM) | MIC [2, 13]: 0.05 µg/mL (≈ 0.128 µM) | MIC [2, 14]: 0.2 µg/mL (≈ 0.514 µM) | melting point: 238 to 240 °C

CCOC(=O)NC1CCN(c2c(F)cc3c(=O)c(C(=O)O)cn(C4CC4)c3c2OC)CC1(C)C (centres unmarked) [Compound 30, 1-Cyclopropyl-6-fluoro-1,4-dihydro-8-methoxy-7-(4-carbethoxyamino-3,3-dimethyl-1-piperidinyl)-4-oxo-quinoline-3-carboxylic acid]
MIC [2, 10]: 0.05 µg/mL (≈ 0.105 µM) | MIC [2, 13]: 0.05 µg/mL (≈ 0.105 µM) | MIC [2, 14]: 0.1 µg/mL (≈ 0.21 µM) | melting point: 222 °C

Cc1c(N2CCC(N(C)C)C(C)C2)c(F)cc2c(=O)c(C(=O)O)cn(C3CC3)c12 (centres unmarked) [Compound 114, 1-Cyclopropyl-6-fluoro-1,4-dihydro-8-methyl-7-(4-dimethylamino-3-methyl-1-piperidinyl)-4-oxo-quinoline-3-carboxylic acid]
MIC [2, 10]: 0.05 µg/mL (≈ 0.125 µM) | MIC [2, 13]: 0.05 µg/mL (≈ 0.125 µM) | MIC [2, 14]: 0.05 µg/mL (≈ 0.125 µM) | melting point: 221 °C

COc1c(N2CC(C)C(N)C(C)C2)c(F)cc2c(=O)c(C(=O)O)cn(C3CC3)c12 (centres unmarked) [Example 33, 1-cyclopropyl-6-fluoro-1,4-dihydro-8-methoxy-7-(4-amino-3,5-dimethyl-1-piperidinyl)-4-oxo-quinoline-3-carboxylic acid]
melting point: 238 to 240 °C

COc1c(N2CC(C)C(N)C(C)C2)c(F)cc2c(=O)c(C(=O)O)cn(C3CC3)c12 (centres unmarked) [Example 34, 1-cyclopropyl-6-fluoro-1,4-dihydro-8-methoxy-7-(4-amino-3,5-dimethyl-1-piperidinyl)-4-oxo-quinoline-3-carboxylic acid]
melting point: 200 to 204 °C

CCNC1C(C)CN(c2c(F)cc3c(=O)c(C(=O)O)cn(C4CC4)c3c2OC)CC1C (centres unmarked) [Example 38, 1-cyclopropyl-6-fluoro-1,4-dihydro-8-methoxy-7-(4-ethylamino-3,5-dimethyl-1-piperidinyl)-4-oxo-quinoline-3-carboxylic acid]
melting point: 250 to 252 °C

CCNC1C(C)CN(c2c(F)cc3c(=O)c(C(=O)O)cn(C4CC4)c3c2OC)CC1C (centres unmarked) [Example 39, 1-cyclopropyl-6-fluoro-1,4-dihydro-8-methoxy-7-(4-ethylamino-3,5-dimethyl-1-piperidinyl)-4-oxo-quinoline-3-carboxylic acid]
melting point: 250 to 255 °C

COc1c(N2CC(C)C(NC3CC3)C(C)C2)c(F)cc2c(=O)c(C(=O)O)cn(C3CC3)c12 (centres unmarked) [Example 41, 1-cyclopropyl-6-fluoro-1,4-dihydro-8-methoxy-7-(4-cyclopropylamino-3,5-dimethyl-1-piperidinyl)-4-oxo-quinoline-3-carboxylic acid]
melting point: 240 to 242 °C

COc1c(N2CC(C)C(N)C(C)C2)c(F)c(N)c2c(=O)c(C(=O)O)cn(C3CC3)c12 (centres unmarked) [Example 53, 5-Amino-1-cyclopropyl-6-fluoro-1,4-dihydro-8-methoxy-7-(4-amino-3,5-dimethyl-1-piperidinyl)-4-oxo-quinoline-3-carboxylic acid]
melting point: 248 to 250 °C (dec.)

CCNC1C(C)CN(c2c(F)c(N)c3c(=O)c(C(=O)O)cn(C4CC4)c3c2OC)CC1C (centres unmarked) [Example 57, 5-amino-1-cyclopropyl-6-fluoro-1,4-dihydro-8-methoxy-7-(4-ethylamino-3,5-dimethyl-1-piperidinyl)-4-oxo-quinoline-3-carboxylic acid]
melting point: 202 to 204 °C

CCNC1C(C)CN(c2c(F)c(N)c3c(=O)c(C(=O)O)cn(C4CC4)c3c2OC)CC1C (centres unmarked) [Example 58, 5-amino-1-cyclopropyl-6-fluoro-1,4-dihydro-8-methoxy-7-(4-ethylamino-3,5-dimethyl-1-piperidinyl)-4-oxo-quinoline-3-carboxylic acid]
melting point: 255 to 258 °C

COc1c(N2CC(C)C(NC3CC3)C(C)C2)c(F)c(N)c2c(=O)c(C(=O)O)cn(C3CC3)c12 (centres unmarked) [Example 60, 5-Amino-1-cyclopropyl-6-fluoro-1,4-dihydro-8-methoxy-7-(4-cyclopropylamino-3,5-dimethyl-1-piperidinyl)-4-oxo-quinoline-3-carboxylic acid]
melting point: 248 °C

COc1c(N2CCNC(C)C2)c(F)cc2c(=O)c(C(=O)O)cn(C3CC3)c12 (centres unmarked) [Gatifloxacin]
ED50 [5]: > 100 mg/kg

C[C@H]1COc2c(N3CCN(C)CC3)c(F)cc3c(=O)c(C(=O)O)cn1c23 [S-(−)-levofloxacin, reference compound]
MIC ([1]; Cipro^R S. sanguis 941): 12.5 µg/mL (≈ 34.6 µM) | MIC [1, 6]: 6.25 µg/mL (≈ 17.3 µM) | MIC [1, 7]: 25 µg/mL (≈ 69.2 µM) | MIC [1, 8]: 12.5 µg/mL (≈ 34.6 µM) | MIC [2, 9]: 0.8 µg/mL (≈ 2.21 µM) | MIC [2, 10]: 0.025 µg/mL (≈ 0.0692 µM) | MIC [2, 11]: 3.12 µg/mL (≈ 8.63 µM) | MIC [2, 12]: 1.56 µg/mL (≈ 4.32 µM) | MIC [2, 13]: 0.2 µg/mL (≈ 0.553 µM) | MIC [2, 14]: 0.8 µg/mL (≈ 2.21 µM) | ED50 [5]: > 100 mg/kg
